In ChEMBL document CHEMBL6134908, “Inverse Agonists of Peroxisome Proliferator-Activated Receptor Gamma: Advances and Prospects in Cancer Treatment” (J Med Chem, 2025):

Tests used:
[1] = Induction of ANGPTL4 mRNA expression in human HT1197 cells
[2] = biological target: T1, Peroxisome proliferator-activated receptor gamma (Homo sapiens) (UniProt P37231); experiment: Inhibition of PPRAgamma in HEK293 cells assessed as […] in FABP4 mRNA expression at 100 nM relative to control; format: cell-based
T1 sequence (whole entry): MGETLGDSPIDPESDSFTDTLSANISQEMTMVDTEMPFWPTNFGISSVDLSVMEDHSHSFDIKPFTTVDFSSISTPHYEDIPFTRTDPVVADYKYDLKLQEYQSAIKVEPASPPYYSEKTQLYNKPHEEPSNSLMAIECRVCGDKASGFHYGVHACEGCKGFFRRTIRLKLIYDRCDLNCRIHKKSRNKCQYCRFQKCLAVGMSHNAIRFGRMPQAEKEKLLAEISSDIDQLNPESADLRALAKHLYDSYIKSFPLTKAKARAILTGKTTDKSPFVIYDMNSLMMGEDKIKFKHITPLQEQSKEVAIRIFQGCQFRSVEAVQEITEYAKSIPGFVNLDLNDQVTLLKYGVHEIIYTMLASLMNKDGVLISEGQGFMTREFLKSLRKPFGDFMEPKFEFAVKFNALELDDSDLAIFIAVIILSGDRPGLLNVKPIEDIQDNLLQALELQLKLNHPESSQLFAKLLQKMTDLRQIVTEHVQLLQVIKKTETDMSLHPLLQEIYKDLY

Row | inhibition [2] [%] | SMILES | EC50 [1] [nM]
1 | – | N#Cc1cc(-c2cc(=O)c3c(F)cc(F)cc3[nH]2)c(Cl)cn1 | 0.14
2 | 95 | N#Cc1ccc(Cl)c(-c2cc(=O)c3c(F)cc(F)cc3[nH]2)c1 | –
